Test results as given in patent US6225478A, “Iridoid derivatives and neovascularization inhibitors containing the same as active ingredient” (Tsumura & Co., priority 1999, dated 2001).

Each molecule was assayed on HUFEC (assay: Cell Migration Assay (CMA) Test, inhibitory rate with control (-) correction). Conditions: Homo sapiens, 24 h, 125 μl of 0.32 mM sample solution in 4.0 ml medium, 80% or more = remarkable.
Type: cell-based, human
Procedure: (§1) Samples were prepared using the present compounds of Compound No. I-60 through I-315. More specifically, 32 μl of a 20 mM sample solution dissolved in dimethylsulfoxide (DMSO) were removed and brought to a volume of 1 ml with phosphate-buffered saline (PBS) to prepare a sample solution having a concentration of 0.32 mM (containing 3.2% DMSO).
After disseminating the 7th subculture of […] obtained from the first generation at 4 ml/well (3.0×10^5 cells/well) in a collagen-coated 6-well plate (NUNC), the cells were cultured for 48 hours at 37° C. in the presence of 5% CO2. The cells reached nearly a completely confluent state as a result of this culturing.
A double-edged, disposable razor blade was divided into four sections, of which one of those sections was pinched between a pair of forceps. Using this piece of razor blade, the cell surface in the above confluent state was scraped off.
After washing the surface of the wells from which the cells had been scraped off with medium, 4.0 ml of fresh M199 (2+) medium were placed in the wells. 4.0 ml of M199 medium were added to the control (-) well.
125 μl of sample solution (0.32 mM, containing 3.2% dimethylsulfoxide) were added to the wells.
125 μl of PBS solution containing 3.2% dimethylsulfoxide were added to the control wells instead of sample. The cells were cultured for 24 hours at 37° C. in the presence of 5% CO2. After discarding the culture liquid, the cells were fixed for 30 minutes with methanol. Next, after […] the cells for 4 hours with Giemsa stain, the plates were washed with tap water and air dried.
Measurement of cell migration was performed by microscopically counting the number of cells that had newly migrated within the range of a 1 mm×1 mm block. […] The total number of cells counted in blocks 1 through 5 were then totaled to determine the overall total number of cells. Four fields were counted for each well.
Evaluation was performed determining the cell migration inhibitory rate (%) according to the following equation.
Inhibitory rate=100-((number of migrating cells to which sample was added-number of migrating cells of control (-))×100/(number of migrating cells of control (+)-number of migrating cells of control (-)))
If this inhibitory rate was 80% or more, cell migration was assessed as being remarkable.

SMILES	inhibition at 320 µM (stock) [%]
COC(=O)C1=CO[C@@H](OC(=O)NCCc2c[nH]c3ccccc23)[C@@H]2C(C)=CC[C@H]12 [I-115]	3.1
COC(=O)C1=CO[C@@H](OC(=O)NCc2ccncc2)[C@@H]2C(C)=CC[C@H]12 [I-116]	5.6
COC(=O)C1=CO[C@@H](OC(=O)NCCN(C)C)[C@@H]2C(C)=CC[C@H]12 [I-117]	28.1
COC(=O)C1=CO[C@@H](OC(=O)NCCN2CCCCC2)[C@@H]2C(C)=CC[C@H]12 [I-118]	31.3
COC(=O)C1=CO[C@@H](OC(=O)NCCc2ccccc2)[C@@H]2C(C)=CC[C@H]12 [I-119]	18.8
COC(=O)C1=CO[C@@H](OC(=O)N2CCc3ccccc3C2)[C@@H]2C(C)=CC[C@H]12 [I-120]	3.1
COCCCNC(=O)O[C@@H]1OC=C(C(=O)OC)[C@H]2CC=C(C)[C@@H]12 [I-121]	7.1
COC(=O)C1=CO[C@@H](OC(=O)N(C)CCc2ccc(OC)c(OC)c2)[C@@H]2C(C)=CC[C@H]12 [I-122]	10.3
C=CCNC(=O)O[C@@H]1OC=C(C(=O)OC)[C@H]2CC=C(C)[C@@H]12 [I-123]	8
COC(=O)C1=CO[C@@H](OC(=O)NCCCN2CCOCC2)[C@@H]2C(C)=CC[C@H]12 [I-124]	5.7
C=CCN(CC=C)C(=O)O[C@@H]1OC=C(C(=O)OC)[C@H]2CC=C(C)[C@@H]12 [I-125]	17.2
COC(=O)C1=CO[C@@H](OC(=O)NCc2ccccc2F)[C@@H]2C(C)=CC[C@H]12 [I-126]	6.5
COC(=O)C1=CO[C@@H](OC(=O)NCc2cccc(F)c2)[C@@H]2C(C)=CC[C@H]12 [I-127]	5.3
COC(=O)C1=CO[C@@H](OC(=O)NCc2cccc(C(F)(F)F)c2)[C@@H]2C(C)=CC[C@H]12 [I-128]	8.7
COC(=O)C1=CO[C@@H](OC(=O)NCc2ccc3c(c2)OCO3)[C@@H]2C(C)=CC[C@H]12 [I-129]	4.3
COC(=O)C1=CO[C@@H](OC(=O)N2CCN(c3cccc(C(F)(F)F)c3)CC2)[C@@H]2C(C)=CC[C@H]12 [I-130]	7.5
COC(=O)C1=CO[C@@H](OC(=O)NCc2nc3ccccc3[nH]2)[C@@H]2C(C)=CC[C@H]12 [I-131]	19.5
COC(=O)C1=CO[C@@H](OC(=O)NCC#N)[C@@H]2C(C)=CC[C@H]12 [I-132]	15.6
COC(=O)C1=CO[C@@H](OC(=O)NCc2ccc(S(N)(=O)=O)cc2)[C@@H]2C(C)=CC[C@H]12 [I-133]	3.9
COC(=O)C1=CO[C@@H](OC(=O)NCCS)[C@@H]2C(C)=CC[C@H]12 [I-134]	7.1

What follows are molecules tested on human umbilical-vein endothelial cells (HUVEC) (assay: Tube Formation Assay (TFA) Test, HUVEC in collagen gel). Conditions: Homo sapiens, HUVEC, Tables 75-83; 0.32 mM sample solution; method as for Compounds 1 through 60; read-out: TFA Inhibition rate (%).
Type: cell-based
Procedure: Furthermore, the sample liquids of compounds used in the CPA and CMA tests were prepared in the manner described below. Firstly, after weighing out each compound, a calculated amount of DMSO was added. After dissolving the compound in the DMSO, phosphate buffered physiological saline (PBS (-)) was added to bring the sample concentration to 1 mg/ml in PBS (-). The amount of DMSO used to dissolve the compounds was adjusted in advance to that the concentration of DMSO at that time was 5%. The resulting liquids were diluted 10-fold with 5% DMSO-PBS (-) solution to prepare sample solutions having a concentration of 0.1 mg/ml. In the TFA test, 320 μl of the prepared 1 mg/ml sample solutions were removed followed by addition of 680 μl of PBS (-) to prepare samples having a concentration of […]. Moreover, 100 μl of this solution was removed followed by addition of 900 μl of PBS (-) to dilute 10-fold and prepare samples having a concentration of 1 μg/ml. P [Cell Proliferation Assay (CPA) Test]
To begin with, 8 volumes of Type 1-A cell matrix (manufactured by Gibco Co.), 1 volume of 10×M119, and 1 volume of reconstituted buffer [200 mM HEPES, 0.05 N sodium hydroxide, 260 mM sodium bicarbonate] were slowly mixed under cooling with ice while avoiding bubbling to form a collagen gel. This collagen gel was distributed in a NUNC 24-well plate at 310 μl/well followed by allowing to stand undisturbed for 2 hours at 37° C. to solidify the gel.
Next, the 7th subculture of HUVEC (1×10^5 cells/ml) obtained from the first generation in the same manner as above were disseminated at 500 μl/well. The cells were cultured for 2 hours at 37° C. to allow the cells to make contact with the collagen. After then removing the medium by aspiration, 50 μl of sample solution were added followed by addition of 310 μl/well of freshly prepared collagen gel and culturing for 1 hour and 10 minutes at 37° C. to solidify the double-layer gel.
1 ml/well of M-199 medium containing 20% FCS, 30 ng /ml of b-FGF and 0.1 μM PMA were added to the wells followed by culturing for 20 hours at 37° C. in the presence of 5% CO2.
Measurement of the lengths of the formed tubes was performed using the public domain NIH Image with a computer.
Evaluation was performed by calculating the inhibition rate (%) of tube formation according to the following formula.
Inhibition rate (%)=100-((formed tube length in presence of sample-formed tube length in presence of control (-))×100/(formed tube length in presence of control (+)-formed tube length in presence of control (-)))
as §1
The testing method used for these compounds was the same as that used for the compounds of Compound No. 1 through 60 previously described.

SMILES	inhibition at 320 µM (stock) [%]
COC(=O)C1=CO[C@@H](OC(=O)NCCc2c[nH]c3ccccc23)[C@@H]2C(C)=CC[C@H]12 [I-115]	6.8
COC(=O)C1=CO[C@@H](OC(=O)NCc2ccncc2)[C@@H]2C(C)=CC[C@H]12 [I-116]	6.9
COC(=O)C1=CO[C@@H](OC(=O)NCCN(C)C)[C@@H]2C(C)=CC[C@H]12 [I-117]	26.8
COC(=O)C1=CO[C@@H](OC(=O)NCCN2CCCCC2)[C@@H]2C(C)=CC[C@H]12 [I-118]	5.1
COC(=O)C1=CO[C@@H](OC(=O)NCCc2ccccc2)[C@@H]2C(C)=CC[C@H]12 [I-119]	4.2
COC(=O)C1=CO[C@@H](OC(=O)N2CCc3ccccc3C2)[C@@H]2C(C)=CC[C@H]12 [I-120]	7.8
COCCCNC(=O)O[C@@H]1OC=C(C(=O)OC)[C@H]2CC=C(C)[C@@H]12 [I-121]	9.4
COC(=O)C1=CO[C@@H](OC(=O)N(C)CCc2ccc(OC)c(OC)c2)[C@@H]2C(C)=CC[C@H]12 [I-122]	9.1
C=CCNC(=O)O[C@@H]1OC=C(C(=O)OC)[C@H]2CC=C(C)[C@@H]12 [I-123]	14.1
COC(=O)C1=CO[C@@H](OC(=O)NCCCN2CCOCC2)[C@@H]2C(C)=CC[C@H]12 [I-124]	2.6
C=CCN(CC=C)C(=O)O[C@@H]1OC=C(C(=O)OC)[C@H]2CC=C(C)[C@@H]12 [I-125]	2.6
COC(=O)C1=CO[C@@H](OC(=O)NCc2ccccc2F)[C@@H]2C(C)=CC[C@H]12 [I-126]	4
COC(=O)C1=CO[C@@H](OC(=O)NCc2cccc(F)c2)[C@@H]2C(C)=CC[C@H]12 [I-127]	5.3
COC(=O)C1=CO[C@@H](OC(=O)NCc2cccc(C(F)(F)F)c2)[C@@H]2C(C)=CC[C@H]12 [I-128]	9.4
COC(=O)C1=CO[C@@H](OC(=O)NCc2ccc3c(c2)OCO3)[C@@H]2C(C)=CC[C@H]12 [I-129]	19.5
COC(=O)C1=CO[C@@H](OC(=O)N2CCN(c3cccc(C(F)(F)F)c3)CC2)[C@@H]2C(C)=CC[C@H]12 [I-130]	5.5
COC(=O)C1=CO[C@@H](OC(=O)NCc2nc3ccccc3[nH]2)[C@@H]2C(C)=CC[C@H]12 [I-131]	7.2
COC(=O)C1=CO[C@@H](OC(=O)NCC#N)[C@@H]2C(C)=CC[C@H]12 [I-132]	3.9
COC(=O)C1=CO[C@@H](OC(=O)NCc2ccc(S(N)(=O)=O)cc2)[C@@H]2C(C)=CC[C@H]12 [I-133]	9.5
COC(=O)C1=CO[C@@H](OC(=O)NCCS)[C@@H]2C(C)=CC[C@H]12 [I-134]	8.6
